Experimental data: patent US8354431B2, “Aryl carboxylic acid cyclohexyl amide derivatives” (Novartis AG, priority 2007, dated 2013)

What was measured:
[1] = biological target: T1, hCCR2b (Homo sapiens, UniProt P41597); test: CCR2 membrane binding assay (SPA, [125I] MCP-1); settings: table does not name the assay; b437 says 'in these assays'
T1 construct: expressed in transfected cells; host or cells: CHO-dukX
T1 sequence (P41597 1-360 isoform P41597-2): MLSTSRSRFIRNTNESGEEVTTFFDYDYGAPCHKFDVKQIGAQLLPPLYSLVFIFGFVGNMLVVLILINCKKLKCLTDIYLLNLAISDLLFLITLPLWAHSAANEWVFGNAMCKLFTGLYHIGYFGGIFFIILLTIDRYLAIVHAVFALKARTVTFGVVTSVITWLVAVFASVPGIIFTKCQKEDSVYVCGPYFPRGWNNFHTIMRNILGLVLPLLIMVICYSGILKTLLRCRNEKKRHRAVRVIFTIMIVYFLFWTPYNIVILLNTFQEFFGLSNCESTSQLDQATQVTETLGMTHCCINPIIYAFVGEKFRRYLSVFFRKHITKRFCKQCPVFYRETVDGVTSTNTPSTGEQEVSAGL
Protocol: Transfected CHO-dukX cells stably expressing the hCCR2b gene are grown in MEM alpha medium to a confluency of between 70 and 80%. After discarding the medium, 30 ml ice-cold physiological buffer solution containing 1 mM EDTA are added and the cells removed from the plate using a scraper. The cell suspension is centrifuged at 800 g for 10′ at 4° C. and the cell pellet resuspended in buffer. Cell lysis is done using a Polytron PTI300D instrument at 28 000 RPM for 2 times 30 seconds on ice. Membranes are collected by centrifugation at 42 000 g for 20 minutes at 4° C. and subjected to a second round of lysis (Polytron, 28 000 RPM, 2×30 seconds on ice). Following centrifugation at 42 000 g for 20 minutes at 4° C. the membranes are resuspended in buffer at a protein concentration of 2 mg/ml and stored at −80° C. Ten millimolar stock solutions of test compounds in 100% DMSO are prepared. Test compounds are further diluted in buffer to yield the four-fold concentrated solutions for the tests that assayed a range of 10^−10 to 10^−5 M. The SPA assay is performed in a final volume of 200 μl per well in 96 well plates. The components are added per well in the following order: • 50 μl Buffer (+/−test compound) • 50 μl Wheat germ agglutinin-SPA beads (1.25 mg/well) in buffer • 50 μl CCR2B membrane suspension diluted with buffer to 0.04 mg/ml (2 μg/well), alternatively 50,000 cells per well • 50 μl [^125I] MCP-1 in buffer (60 pM final concentration, 2.5 μCi/plate)
After addition of all components the plate is sealed and incubated for 90 minutes at room temperature with constant shaking. Following incubation the plate is centrifuged at 1000 RPM in a Sorvall RC3B centrifuge for 4 minutes at room temperature and counted for 3 minutes per well in a TOP COUNT instrument (Packard). The quench-corrected counts are used for the analysis of radioligand binding.

[2] = biological target: T2, Human CCR5 (Homo sapiens, UniProt P51681); test: CCR5 membrane binding assay ([I-125]MIP-1α); settings: table does not name the assay; b437 says 'in these assays'
T2 construct: expressed in transfected cells; host or cells: CHO K1
T2 sequence (P51681 whole entry): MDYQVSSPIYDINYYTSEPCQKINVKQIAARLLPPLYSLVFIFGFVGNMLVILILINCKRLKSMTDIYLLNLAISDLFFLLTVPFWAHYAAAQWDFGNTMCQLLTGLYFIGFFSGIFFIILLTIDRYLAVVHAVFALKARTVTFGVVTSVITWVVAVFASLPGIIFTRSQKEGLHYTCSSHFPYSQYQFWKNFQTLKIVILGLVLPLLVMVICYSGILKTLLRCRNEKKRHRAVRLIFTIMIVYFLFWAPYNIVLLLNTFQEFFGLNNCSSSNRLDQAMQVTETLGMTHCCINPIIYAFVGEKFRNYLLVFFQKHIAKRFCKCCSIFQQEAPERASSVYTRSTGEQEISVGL
Protocol: Human CCR5 is used to generate stable transfectants in CHO K1 cells. Membranes prepared from these CCR5 transfectants are used in a radioligand binding assay using 125-1-MIP-1α as a ligand and the compounds of formula I are tested for inhibitory activity. The data are reported as IC50, i.e. the concentration of compound required to achieve 50% inhibition of [I-125]MIP-1α binding. In this assay, compounds of formula I have an IC50 between 0.004 and 10 μM.

[3] = tested on: CCR2 receptor; test: Receptor occupancy of the CCR2 receptor over time (blood monocytes, FACS); type: in vivo; settings: dose 10 mg/kg
Protocol: The Agents of the Invention typically have a favourable pharmacokinetic profile, i.e. such as a relatively fast elimination over time. A faster elimination is typically indicative for an improved tolerability or is typically associable with less side effects. Such may be assessed by determining for example the receptor occupancy of the CCR2 receptor over time.
Receptor occupancy assaying may be performed in 96-well plates. 45 microliters of freshly obtained blood samples are incubated with 5 microliter of a MCP-1 solution (several concentrations for assessing a biding curve). The concentration of said MCP-1 solution is from 0.01 to 100 nanomolar, whereby the dilutions are made in RPMI1640 with glutamax supplemented with 1% nonessential amino acids, sodium pyruvate, penicillin/streptomycin, […] beta-mercaptoethanol and 1% human albumin.
Said incubation is carried out for 30 min at 37° C., and is then stopped by adding 180 microliter BD FACS lysis solution followed by centrifugation. Said lysis addition and centrifugation is repeated once and the remaining cells are then washed with ice cold FACS buffer ([…] containing 2% FCS and 0.1% NaN3). Thereupon, the cells are stained with antibodies for FACS analysis.
The cells are now triple stained with FITC-conjugated anti-CD14, PE-conjugated anti-HLA-DR and APC-conjugated anti-CCR2. The antibodies are diluted into FACS buffer, supplemented with 3 mg/ml juman IgG, and the staining is performed in a total of 25 microliter for 30 min. on ice. The stained cells are washed twice with cold FACS buffer and then analyzed by flow cytometry using a FACScalibur and CellQuest software. The expression of CCR2 on CD-14- and HLA-DR-positive monocytes is determined and expressed as mean fluorescence intensity (MFI). The relative CCR2 expression is expressed as percent of control staining.

Row | IC50 [1] | IC50 [2] | SMILES | Receptor blockade After 2 hrs in % [3] | Receptor blockade After 24 hrs in % [3]
1 | 0.8 nM | 2.9 nM | CCOCCOc1ccc2c(COc3cccc4[nH]c(C(=O)N[C@H]5CC[C@](O)(CCN6CC[C@H](O)[C@@H](C)C6)CC5)cc34)coc2c1 [Example 16, 4-[6-(2-Ethoxy-ethoxy)-benzofuran-3-ylmethoxy]-1H-indole-2-carboxylic acid {4-hydroxy-4-[2-((3S,4S)-4-hydroxy-3-methyl-piperidin-1-yl)-ethyl]-cyclohexyl}-amide] | 78.1% | 21.6%
2 | 0.2 nM | 3.3 nM | CC(C)OCCOc1ccc2c(COc3cccc4[nH]c(C(=O)N[C@H]5CC[C@](O)(CCN6CC[C@H](O)[C@@H](C)C6)CC5)cc34)coc2c1 [Example 18, 4-[6-(2-Isopropoxy-ethoxy)-benzofuran-3-ylmethoxy]-1H-indole-2-carboxylic acid {4-hydroxy-4-[2-((3S,4S)-4-hydroxy-3-methyl-piperidin-1-yl)-ethyl]-cyclohexyl}-amide] | 88.2% | 43.5%
3 | 0.4 nM | 4.8 nM | C[C@H]1CN(CC[C@]2(O)CC[C@@H](NC(=O)c3cc4c(OCc5coc6cc(OCC7CC7)ccc56)cccc4[nH]3)CC2)CC[C@@H]1O [Example 15, 4-(6-Cyclopropylmethoxy-benzofuran-3-ylmethoxy)-1H-indole-2-carboxylic acid {4-hydroxy-4-[2-((3S,4S)-4-hydroxy-3-methyl-piperidin-1-yl)-ethyl]-cyclohexyl}-amide] | 103.2% | 42.6%
